Results from article PMC5039535, “Dichotocejpins A–C: New Diketopiperazines from a Deep-Sea-Derived Fungus Dichotomomyces cejpii FS110” (Marine Drugs, 2016).

Assays:
SF-268 tumor cell line = assay: SRB cytotoxicity assay, SF-268; format: cell-based, human; settings: SRB method, mean ± s, n=3
Experimental: (§1) The in vitro cytotoxicities of compounds 1–11 were evaluated against the SF-268, MCF-7, NCI-H460, and HepG-2 tumor cell lines by the Sulforhodamine B (SRB) method.
(§2) Cytotoxicities of compounds (1–11) were assayed against four tumor cell lines SF-268, MCF-7, NCI-H460, and HepG-2. Assays were performed by the SRB method.

MCF-7 tumor cell line = assay: SRB cytotoxicity assay, MCF-7; format: cell-based, human; settings: SRB method, mean ± s, n=3
Experimental: as §1, §2

NCI-H460 tumor cell line = assay: SRB cytotoxicity assay, NCI-H460; format: cell-based, human; settings: SRB method, mean ± s, n=3
Experimental: as §1, §2

HepG-2 tumor cell line = assay: SRB cytotoxicity assay, HepG-2; format: cell-based, human; settings: SRB method, mean ± s, n=3
Experimental: as §1, §2

α-glucosidase = α-glucosidase inhibitory activity assay; format: biochemical; settings: in vitro; mean ± s, n=3
Experimental: All compounds were evaluated in vitro for α-glucosidase inhibitory activities.
An assay of α-glucosidase inhibitory activity was performed as previously described.

[1] = test system: SF-268, MCF-7, NCI-H460, and HepG-2 tumor cell lines; assay: SRB cytotoxicity, four tumor cell lines taken together; format: cell-based, human; settings: for cytotoxic / inhibitory activity against the four tumor cell lines (in words): SF-268, MCF-7, NCI-H460, HepG-2, SRB method; for IC50: Homo sapiens, range over SF-268, MCF-7, NCI-H460, HepG-2, read-out: IC50 values against the four tumor cell lines
Experimental: as §1, §2

With `CSC1(CO)C(=O)n2c(cc3ccccc32)C(=O)N1C` (stereo not shown) [Compound 1, dichotocejpin A] the IC50 (SF-268 tumor cell line; Homo sapiens, SF-268) was 35.7 ± 2.1 µM, the IC50 (MCF-7 tumor cell line; Homo sapiens, MCF7) was 29.5 ± 2.3 µM and the IC50 (NCI-H460 tumor cell line; Homo sapiens, NCI-H460) was greater than 100 µM. For the same compound, the IC50 (HepG-2 tumor cell line; Homo sapiens, HepG2) was 28.9 ± 3 µM, the IC50 (α-glucosidase) was 138 ± 6.7 µM and the “cytotoxic / inhibitory activity against the four tumor cell lines (in words)” value (“cytotoxic / inhibitory activity” for short) [1] was “inactive or weak”.

`C=C1C(=O)N2C3C(=CC=CC3OC(C)=O)CC2(O)C(=O)N1C` (stereo not shown) [Compound 2, dichotocejpin B] gave an IC50 (SF-268 tumor cell line; Homo sapiens, SF-268) greater than 100 µM, an IC50 (MCF-7 tumor cell line; Homo sapiens, MCF7) greater than 100 µM and an IC50 (NCI-H460 tumor cell line; Homo sapiens, NCI-H460) greater than 100 µM. For the same compound, the IC50 (HepG-2 tumor cell line; Homo sapiens, HepG2) was greater than 100 µM, the IC50 (α-glucosidase) was greater than 500 µM and the “cytotoxic / inhibitory activity” value [1] was “inactive or weak”.

In the case of `CN1C(=O)[C@]2(O)Cc3ccccc3N2C(=O)[C@H]1CO` [Compound 3, dichotocejpin C], the IC50 (SF-268 tumor cell line; Homo sapiens, SF-268) is reported as greater than 100 µM, the IC50 (MCF-7 tumor cell line; Homo sapiens, MCF7) is reported as greater than 100 µM and the IC50 (NCI-H460 tumor cell line; Homo sapiens, NCI-H460) is reported as greater than 100 µM. For the same compound, the IC50 (HepG-2 tumor cell line; Homo sapiens, HepG2) was greater than 100 µM, the IC50 (α-glucosidase) was greater than 500 µM and the “cytotoxic / inhibitory activity” value [1] was “inactive or weak”.

For `CN1C(=O)[C@]23Cc4ccccc4N2C(=O)[C@@]1(CO)SS3` [Compound 4, 6-deoxy-5a,6-didehydrogliotoxin], the IC50 (SF-268 tumor cell line; Homo sapiens, SF-268) was 1.35 ± 0.05 µM, the IC50 (MCF-7 tumor cell line; Homo sapiens, MCF7) was 0.68 ± 0.02 µM and the IC50 (NCI-H460 tumor cell line; Homo sapiens, NCI-H460) was 1.27 ± 0.04 µM. For the same compound, the IC50 (HepG-2 tumor cell line; Homo sapiens, HepG2) was 1.52 ± 0.03 µM, the IC50 (α-glucosidase) was greater than 500 µM and the IC50 [1] was 0.08 to 1.52 µM.

Compound `CN1C(=O)[C@]23CC4=CC=C[C@H](O)[C@H]4N2C(=O)[C@@]1(CO)SS3` [Compound 5, gliotoxin] has an IC50 (SF-268 tumor cell line; Homo sapiens, SF-268) of 0.24 ± 0.1 µM, an IC50 (MCF-7 tumor cell line; Homo sapiens, MCF7) of 0.08 µM and an IC50 (NCI-H460 tumor cell line; Homo sapiens, NCI-H460) of 0.24 ± 0.01 µM. The IC50 (HepG-2 tumor cell line; Homo sapiens, HepG2) was 0.21 ± 0.01 µM, the IC50 (α-glucosidase) was greater than 500 µM and the IC50 [1] was 0.08 to 1.52 µM.

Compound `CC(=O)O[C@H]1C=CC=C2C[C@]34SS[C@](CO)(C(=O)N3C21)N(C)C4=O` (stereo partly shown) [Compound 6, acetylgliotoxin] has an IC50 (SF-268 tumor cell line; Homo sapiens, SF-268) of 0.25 ± 0.03 µM, an IC50 (MCF-7 tumor cell line; Homo sapiens, MCF7) of 0.22 ± 0.04 µM and an IC50 (NCI-H460 tumor cell line; Homo sapiens, NCI-H460) of 0.32 ± 0.02 µM. It also gave an IC50 (HepG-2 tumor cell line; Homo sapiens, HepG2) of 0.49 ± 0.07 µM, an IC50 (α-glucosidase) greater than 500 µM and an IC50 [1] of 0.08 to 1.52 µM.

Work on `CS[C@@]1(CO)NC(=O)[C@@](Cc2ccccc2)(SC)NC1=O` [Compound 7, bis-N-norgliovictin] yielded an IC50 (SF-268 tumor cell line; Homo sapiens, SF-268) greater than 100 µM, an IC50 (MCF-7 tumor cell line; Homo sapiens, MCF7) greater than 100 µM and an IC50 (NCI-H460 tumor cell line; Homo sapiens, NCI-H460) greater than 100 µM. The IC50 (HepG-2 tumor cell line; Homo sapiens, HepG2) was greater than 100 µM and the IC50 (α-glucosidase) was greater than 500 µM.

`CSC1(Cc2ccccc2)NC(=O)C(CO)NC1=O` (stereo not shown) [Compound 8, 3-benzyl-6-(hydroxymethyl)-3-(methylthio)piperazine-2,5-dione] gave an IC50 (SF-268 tumor cell line; Homo sapiens, SF-268) greater than 100 µM, an IC50 (MCF-7 tumor cell line; Homo sapiens, MCF7) greater than 100 µM and an IC50 (NCI-H460 tumor cell line; Homo sapiens, NCI-H460) greater than 100 µM. For the same compound, the IC50 (HepG-2 tumor cell line; Homo sapiens, HepG2) was greater than 100 µM and the IC50 (α-glucosidase) was greater than 500 µM.

In the case of `CS[C@]1(CO)C(=O)N2[C@H]3C(=CC=C[C@@H]3OC(C)=O)C[C@@]2(SC)C(=O)N1C` [Compound 10, 6-acetylbis(methylthio)gliotoxin], the IC50 (SF-268 tumor cell line; Homo sapiens, SF-268) is reported as 34 ± 3.6 µM, the IC50 (MCF-7 tumor cell line; Homo sapiens, MCF7) is reported as 3.1 ± 0.1 µM and the IC50 (NCI-H460 tumor cell line; Homo sapiens, NCI-H460) is reported as 5.4 ± 0.6 µM. For the same compound, the IC50 (HepG-2 tumor cell line; Homo sapiens, HepG2) was 7 ± 0.17 µM, the IC50 (α-glucosidase) was greater than 500 µM and the “cytotoxic / inhibitory activity” value [1] was “significant inhibitory activities”.

With `C=c1c(=O)n2c(cc3ccccc32)c(=O)n1C` [Compound 11, 1,2,3,4-tetrahydro-2-methyl-3-methylene-1,4-dioxopyrazino[1,2-a]indole] the IC50 (SF-268 tumor cell line; Homo sapiens, SF-268) was 3.3 ± 0.28 µM, the IC50 (MCF-7 tumor cell line; Homo sapiens, MCF7) was 4.67 ± 1.4 µM and the IC50 (NCI-H460 tumor cell line; Homo sapiens, NCI-H460) was 12.3 ± 0.24 µM. The IC50 (HepG-2 tumor cell line; Homo sapiens, HepG2) was 2.29 ± 0.3 µM, the IC50 (α-glucosidase) was greater than 500 µM and the “cytotoxic / inhibitory activity” value [1] was “significant inhibitory activities”.

In the case of `N.N.[Cl][Pt][Cl]` [cisplatin, reference compound], the IC50 (SF-268 tumor cell line) is reported as 2.37 ± 0.35 µM, the IC50 (MCF-7 tumor cell line) is reported as 3.09 ± 0.27 µM and the IC50 (NCI-H460 tumor cell line) is reported as 2.43 ± 0.15 µM. It also gave an IC50 (HepG-2 tumor cell line) of 1.39 ± 0.18 µM.

Compound “bisdethiobis(methylthio)gliotoxin [Compound 9]” has an IC50 (SF-268 tumor cell line) greater than 100 µM, an IC50 (MCF-7 tumor cell line) greater than 100 µM and an IC50 (NCI-H460 tumor cell line) greater than 100 µM. The IC50 (HepG-2 tumor cell line) was greater than 100 µM and the IC50 (α-glucosidase) was greater than 500 µM.
